Measured values as given in patent publication US5744452A, “γ-L-glutamyl containing immunomodulator compounds and methods therewith” (Wei; Edward T., priority 1995, dated 1998).

What was measured:
[1] = test system: murine bone marrow cells; experiment: .THETA.-antigen expression on murine bone marrow cells (T-lymphocyte precursor differentiation); format: cell-based, CBA strain mice; parameters: .THETA.-antigen expression on murine bone marrow cells: unit not given here; settings: for .THETA.-antigen expression on murine bone marrow cells: Table 1; for Percent of murine bone marrow cells expressing .THETA.-antigen: Table 5
Procedure: Differentiation of murine T-lymphocyte precursors was studied by the enumeration of cells expressing early surface differentiation marker .THETA.-antigen. Bone marrow cells were obtained from CBA strain mice killed by cervical dislocation. Cells were washed from femur bones with Hank's balanced salt solution and washed 3 times with RPM 1-1640 medium by centrifugation at 400 xg. Peptides at desired concentrations were incubated with 1×10^6 /ml of obtained cells for 1 hour at 37° C. Theta-antigen (".THETA.-antigen") expression has been determined with antibrain antibodies in a cytotoxicity assay using complement-dependent cell lysis (Terasaki et al., "Microdroplet Lymphocyte Cytotoxicity Test. Manual of Tissue Typing Techniques," National Institutes of Health, Bethesda, Md., pp 50-55, 1972). Dead cells were counted microscopically after eosin staining. […] Its activity was much stronger than that of the reference thymogen peptide.
Differentiation of murine T-lymphocyte precursors was studied by the enumeration of cells expressing early surface differentiation marker--.THETA.-antigen which is an analog of the Thy-1 lymphocyte differentiation antigen. Bone marrow cells were obtained from CBA strain mice killed by cervical dislocation. Cells were washed from femur bones with Hank's balanced salt solution and washed 3 times with RPMI-1640 medium by centrifugation at 400 xg. Peptides at desired concentrations were incubated with 1×10^6 /ml of obtained cells for 1 hour at 37° C. .THETA.-antigen expression were determined with antibrain antibodies in a cytotoxicity assay using complement-dependent cell lysis (Terasaki et al., 1972). Dead cells were counted microscopically after eosin staining untreated bone marrow cells served as a negative control, and murine thymocytes as a positive control.

[2] = test system: dogs; experiment: Subacute toxicity, repeated intramuscular injection, dogs; format: in vivo
Procedure: To illustrate this point and in preparation for clinical studies, acute and sub-acute toxicity studies were conducted in animals with Bestim according to conditions of good-laboratory practices. Bestim, prepared as a sterile lyophitized powder in ampoules, was dissolved in sterile 0.9% NaCl solution and injected intramuscularly in all experiments.
Subacute Toxicity Studies: In a second set of experiments, Bestim was administered for longer durations, accordingly:
dogs: 1 mg/kg, 10 mg/kg and 100 mg/kg, administered intramuscularly daily for 1 month and for 3 months.

[3] = test system: patient with sepsis; experiment: Case History 2: immunodeficiency caused by sepsis (Patient B); format: in vivo, human
Procedure: Patient B was in the clinic with a diagnosis of sepsis. Immunodeficiency was confirmed by laboratory tests. Bestim was administered in the standard 5 daily intramuscular doses of 0.1 mg.

[4] = test system: viral hepatitis; experiment: Clinical trials in viral hepatitis; format: in vivo, human; settings: trials in progress
[5] = test system: human subjects; experiment: Side-effects in all 62 human subjects; format: in vivo; settings: 0.1 mg i.m. per day for 5 days, 62 patients
Procedure: Preliminary studies were conducted to characterize the immunomodulatory properties of Bestim in human subjects. The protocol for the human subjects studies were reviewed and approved by a Hospital Committee (Moscow Hospital N-24) and informed consent was obtained from all subjects. All 62 patients received by intramuscular injection 0.1 mg of Bestim dissolved in 1.5 to 2.0 ml of sterile saline, one injection per day for 5 days. Patients participating in the clinical trials were from 2 groups: […]

[6] = test system: patients with prostatitis caused by Chlamydian infection; experiment: Trial in prostatitis caused by Chlamydian infection; format: in vivo, human; settings: fourteen treated, 30 control patients
Procedure: In addition to these studies, a trial was conducted using Bestim for the treatment of prostatitis caused by Chlamydian infection. Fourteen patients were treated with Bestim with 30 control patients.

[7] = test system: patient after surgical removal of thymus gland; experiment: Case History 3: immunodeficiency caused by surgical removal of the thymus (Patient C); format: in vivo, human
Procedure: Patient C was in the clinic for immunodeficiency caused by surgical removal of the thymus gland. Bestim was administered in the standard 5 daily intramuscular dose of 0.1 mg.

[8] = test system: aminopeptidases; experiment: Degradation by aminopeptidases; format: in vitro ADME
[9] = test system: mice; experiment: Pharmacological activity after oral administration to mice; format: in vivo; settings: for .THETA.-antigen expression % of cells: bone marrow after 30 days; for IL-2 production: splenocytes after 30 days
Procedure: Bestim dissolved in saline was given orally, for 5 days, to groups of 5 mice per dose. After 30 days, the quantity of .THETA.-antigen positive cells in bone marrow and IL-2 production by splenocytes were measured (as described in later in methods).

[10] = After Bestim Therapy (5 daily i.m. 0.1 mg)

Question: Which “.THETA.-antigen expression on murine bone marrow cells” value ([1]; peptide 0.0001 μg/ml, 1 hour 37° C.) does the source give for `N[C@@H](CCC(=O)N[C@@H](Cc1c[nH]c2ccccc12)C(=O)O)C(=O)O` [Bestim, γ-L-glutamyl-L-tryptophan] here?
Answer: 14 ± 1.5

Question: And the “.THETA.-antigen expression on murine bone marrow cells” value ([1]; peptide 0.001 μg/ml)?
Answer: 29 ± 2.4

Question: And the “.THETA.-antigen expression on murine bone marrow cells” value ([1]; peptide 0.01 μg/ml)?
Answer: 30 ± 2.8

Question: And the “.THETA.-antigen expression on murine bone marrow cells” value ([1]; peptide 0.1 μg/ml)?
Answer: 34 ± 1.9

Question: What about the “.THETA.-antigen expression on murine bone marrow cells” value ([1]; peptide 1.0 μg/ml) of the same compound?
Answer: 49 ± 1.2

Question: And the “.THETA.-antigen expression on murine bone marrow cells” value ([1]; peptide 10 μg/ml)?
Answer: 48 ± 0.8

Question: What about the “.THETA.-antigen expression on murine bone marrow cells” value ([1]; peptide 100 μg/ml) of the same compound?
Answer: 47 ± 1.0

Question: And the “Percent of murine bone marrow cells expressing .THETA.-antigen” value (“Percent” for short) ([1]; peptide 0.0001 μg/ml)?
Answer: 25%

Question: What about the “Percent” value ([1]; peptide 0.001 μg/ml) of the same compound?
Answer: 31%

Question: What about the “Percent” value ([1]; peptide 0.01 μg/ml) of the same compound?
Answer: 35%

Question: And the “Percent” value ([1]; peptide 0.1 μg/ml)?
Answer: 37%

Question: What about the “Percent” value ([1]; peptide 1.0 μg/ml) of the same compound?
Answer: 49%

Question: And the “Percent” value ([1]; peptide 10 μg/ml)?
Answer: 52%

Question: What about the “Percent” value ([1]; peptide 100 μg/ml) of the same compound?
Answer: 60%

Question: What about the “potency relative to thymogen” value ([1]; dose-response analysis of Table 1 data) of the same compound?
Answer: at least 500 fold

Question: And the “concentrations with immunostimulatory activity” value ([1]; preclinical studies, summary)?
Answer: sub-nanomolar concentrations

Question: What about the “macroscopic and histological examination of organs” value ([2]; dogs, 1, 10 and 100 mg/kg i.m. daily for 1 and 3 months) of the same compound?
Answer: no significant changes

Question: What about the “local inflammatory reactions at the site of injection” value ([2]; dogs, repeated i.m. injection) of the same compound?
Answer: no local inflammatory reactions at the site of injection

Question: What about the Lymphocytes ([3]; After Bestim Therapy) of the same compound?
Answer: 1370 per mm^3

Question: What about the “T-Lymphocytes (CD3)” value ([3]; After Bestim Therapy) of the same compound?
Answer: 75%

Question: What about the “T-helper lymphocytes (CD4)” value ([3]; After Bestim Therapy) of the same compound?
Answer: 50%

Question: And the White blood cells [3, 10]?
Answer: 9.8 × 10^3 per mm^3

Question: And the Lymphocytes ([3]; Before Therapy)?
Answer: 560 per mm^3

Question: And the “T-Lymphocytes (CD3)” value ([3]; Before Therapy)?
Answer: 23%

Question: And the “T-helper lymphocytes (CD4)” value ([3]; Before Therapy)?
Answer: 11%

Question: What about the White blood cells ([3]; Before Therapy) of the same compound?
Answer: 10.2 × 10^3 per mm^3

Question: What about the “signs and symptoms of viral hepatitis” value [4] of the same compound?
Answer: ameliorates the signs and symptoms of viral hepatitis

Question: What about the side-effects [5] of the same compound?
Answer: No detectable side-effects

Question: And the “inflammation in the prostate” value [6]?
Answer: inflammation in the prostate was ameliorated

Question: And the “T-Lymphocytes (CD3)” value ([7]; After Bestim Therapy)?
Answer: 49%

Question: What about the Lymphocytes [7, 10] of the same compound?
Answer: 1980 per mm^3

Question: And the Lymphocytes ([7]; Before Therapy)?
Answer: 1100 per mm^3

Question: And the “T-Lymphocytes (CD3)” value ([7]; Before Therapy)?
Answer: 10%

Question: What about the “activity of aminopeptidases against the compound” value [8] of the same compound?
Answer: not active

Question: What about the “activity after oral administration” value ([9]; animal studies, summary) of the same compound?
Answer: active after oral administration

Question: And the “.THETA.-antigen expression % of cells” value ([9]; oral 0.1 μg/kg/day for 5 days)?
Answer: 48 ± 1.9 % of cells

Question: And the IL-2 production ([9]; oral 0.1 μg/kg/day for 5 days)?
Answer: 43 ± 11.5 Units/ml

Question: And the “.THETA.-antigen expression % of cells” value ([9]; oral 1 μg/kg/day for 5 days)?
Answer: 48 ± 3.0 % of cells

Question: What about the IL-2 production ([9]; oral 1 μg/kg/day for 5 days) of the same compound?
Answer: 73 ± 16.3 Units/ml

Question: What about the “.THETA.-antigen expression % of cells” value ([9]; oral 10 μg/kg/day for 5 days) of the same compound?
Answer: 36 ± 2.3 % of cells

Question: What about the IL-2 production ([9]; oral 10 μg/kg/day for 5 days) of the same compound?
Answer: 130 ± 11.8 Units/ml
